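Each compound was tested at five concentrations against cells in 96-well plates for 48 hours. GI50 marks 50% less growth.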 Active and inactive are the calls of the source. No stated cut-off is given here; in the data, active = GI50 up to about 1.1 µM and inactive = higher.
Tests used:
Experiment in all cases: DTP human tumour cell line panel, 48 h
Hs-578T = system: Hs-578T
ACHN = system: ACHN
IGROV-1 = system: IGROV-1
SF-539 = system: SF-539
K562 = system: K562
U-251 = system: U-251
NCI-H226 = system: NCI-H226
Malme-3M = system: Malme-3M
MDA-N = system: MDA-N
COLO 205 = system: COLO 205
UACC-257 = system: UACC-257
786-0 = system: 786-0
CAKI-1 = system: CAKI-1
SF-295 = system: SF-295
SN12C = system: SN12C
PC-3 = system: PC-3
NCI-H522 = system: NCI-H522
HOP-92 = system: HOP-92
MDA-MB-435 = system: MDA-MB-435
MDA-MB-231 = system: MDA-MB-231

Row | Compound | GI50 (Hs-578T) | GI50 (ACHN) | GI50 (IGROV-1) | GI50 (SF-539) | GI50 (K562) | GI50 (U-251) | GI50 (NCI-H226) | GI50 (Malme-3M) | GI50 (MDA-N) | GI50 (COLO 205) | GI50 (UACC-257) | GI50 (786-0) | GI50 (CAKI-1) | GI50 (SF-295) | GI50 (SN12C) | GI50 (PC-3) | GI50 (NCI-H522) | GI50 (HOP-92) | GI50 (MDA-MB-435) | GI50 (MDA-MB-231)
1 | COC(=O)c1ccc2c(O)c(O)ccc2c1 | 27 µM (inactive) | 17.1 µM (inactive) | 17.2 µM (inactive) | 19.1 µM (inactive) | 2.36 µM (inactive) | 14.4 µM (inactive) | 23.1 µM (inactive) | 11.8 µM (inactive) | 1.74 µM (inactive) | 13.6 µM (inactive) | 14.9 µM (inactive) | 15.6 µM (inactive) | 25.1 µM (inactive) | 6.98 µM (inactive) | 9.14 µM (inactive) | 5.6 µM (inactive) | 15.2 µM (inactive) | 18.4 µM (inactive) | 1.87 µM (inactive) | 6.56 µM (inactive)
2 | CC(Oc1ccccc1)C(=O)NN (stereo not given) | 34.8 µM (inactive) | > 100 µM (inactive) | > 100 µM (inactive) | > 100 µM (inactive) | > 100 µM (inactive) | > 100 µM (inactive) | > 100 µM (inactive) | > 100 µM (inactive) | > 100 µM (inactive) | > 100 µM (inactive) | > 100 µM (inactive) | > 100 µM (inactive) | > 100 µM (inactive) | > 100 µM (inactive) | > 100 µM (inactive) | > 100 µM (inactive) | 79.3 µM (inactive) | > 100 µM (inactive) | > 100 µM (inactive) | 66.8 µM (inactive)
3 | C/C=C(\C)c1cc(=O)c2c(C)cc3c(c2o1)C(=O)c1c(O)c(C2CC(C)(N(C)C)C(OC(C)=O)C(C)O2)cc(C2CC(N(C)C)C(O)C(C)O2)c1C3=O (stereo not given) | 2 µM (inactive) | 0.155 µM (active) | 0.8 µM (active) | 0.574 µM (active) | 0.652 µM (active) | 0.49 µM (active) | 1.31 µM (inactive) | 0.352 µM (active) | 1.18 µM (inactive) | 0.621 µM (active) | 1.49 µM (inactive) | 0.358 µM (active) | 0.265 µM (active) | 1.06 µM (active) | 0.817 µM (active) | 1.35 µM (inactive) | 0.172 µM (active) | 1.45 µM (inactive) | 1.03 µM (active) | 1.14 µM (inactive)
4 | C#CC(O)/C=C/CCCCCCC#CC/C=C\CC#CCCCCCCCCC(O)C#C (stereo not given) | 20.6 µM (inactive) | 12.2 µM (inactive) | 0.407 µM (active) | 20.8 µM (inactive) | 3.14 µM (inactive) | 20.5 µM (inactive) | 15.6 µM (inactive) | 1.95 µM (inactive) | 1.99 µM (inactive) | 2.58 µM (inactive) | 3.35 µM (inactive) | 2.08 µM (inactive) | 4.29 µM (inactive) | 15.1 µM (inactive) | 1.99 µM (inactive) | 14.3 µM (inactive) | 0.174 µM (active) | 1.8 µM (inactive) | 2.53 µM (inactive) | 3.32 µM (inactive)
5 | CCOC(=O)C(NC(=O)CC)(Nc1ccc(F)c(Cl)c1)C(F)(F)F (stereo not given) | > 100 µM (inactive) | > 55.8 µM (inactive) | > 100 µM (inactive) | > 100 µM (inactive) | > 29.2 µM (inactive) | > 100 µM (inactive) | > 100 µM (inactive) | > 100 µM (inactive) | > 100 µM (inactive) | > 100 µM (inactive) | > 100 µM (inactive) | > 100 µM (inactive) | > 100 µM (inactive) | > 76.4 µM (inactive) | > 100 µM (inactive) | > 64.1 µM (inactive) | > 100 µM (inactive) | > 100 µM (inactive) | > 92.9 µM (inactive) | > 100 µM (inactive)
6 | O=c1c(-c2ccccc2)c(SCCN2CCCC2)n(-c2ccccc2)c(=S)n1-c1ccccc1 | > 100 µM (inactive) | > 100 µM (inactive) | > 100 µM (inactive) | > 100 µM (inactive) | > 100 µM (inactive) | > 100 µM (inactive) | 83.2 µM (inactive) | > 100 µM (inactive) | > 100 µM (inactive) | > 100 µM (inactive) | > 100 µM (inactive) | > 100 µM (inactive) | > 100 µM (inactive) | > 100 µM (inactive) | > 100 µM (inactive) | > 100 µM (inactive) | > 100 µM (inactive) | 71.9 µM (inactive) | > 100 µM (inactive) | > 100 µM (inactive)
7 | CC1(C)CCCC2CC2CCC(C)(C)C1=O (stereo not given) | > 100 µM (inactive) | > 100 µM (inactive) | > 100 µM (inactive) | > 100 µM (inactive) | 17.8 µM (inactive) | 19.1 µM (inactive) | 43.8 µM (inactive) | 58.3 µM (inactive) | 29.5 µM (inactive) | 18.5 µM (inactive) | 39.5 µM (inactive) | 28.8 µM (inactive) | > 100 µM (inactive) | > 100 µM (inactive) | 71 µM (inactive) | 51.1 µM (inactive) | 37.5 µM (inactive) | 74.8 µM (inactive) | 39.5 µM (inactive) | 82.4 µM (inactive)
8 | COC(=O)C1CCC(=O)N1C(c1ccc2c(c1)OCO2)c1ccc2c(c1)OCO2 (stereo not given) | > 100 µM (inactive) | > 100 µM (inactive) | > 100 µM (inactive) | > 100 µM (inactive) | > 100 µM (inactive) | > 100 µM (inactive) | > 100 µM (inactive) | > 100 µM (inactive) | > 100 µM (inactive) | > 100 µM (inactive) | > 100 µM (inactive) | > 100 µM (inactive) | > 100 µM (inactive) | > 100 µM (inactive) | > 100 µM (inactive) | > 100 µM (inactive) | > 100 µM (inactive) | > 100 µM (inactive) | > 100 µM (inactive) | > 100 µM (inactive)
9 | CC(C)(C)OC(=O)CC(NC(=O)OC(C)(C)C)C(=O)Oc1ccc([N+](=O)[O-])cc1 (stereo not given) | > 100 µM (inactive) | > 100 µM (inactive) | > 100 µM (inactive) | > 100 µM (inactive) | > 100 µM (inactive) | > 100 µM (inactive) | > 100 µM (inactive) | > 100 µM (inactive) | > 100 µM (inactive) | > 100 µM (inactive) | > 100 µM (inactive) | > 100 µM (inactive) | > 100 µM (inactive) | > 100 µM (inactive) | > 100 µM (inactive) | > 100 µM (inactive) | > 100 µM (inactive) | > 100 µM (inactive) | > 100 µM (inactive) | > 100 µM (inactive)
10 | NC(=O)C1=C(O)C[C@@H]2CC3Cc4cccc(O)c4C(=O)C3=C(O)[C@]2(O)C1=O (stereo not given in full) | 2.81 µM (inactive) | 1.07 µM (active) | 2 µM (inactive) | 1.64 µM (inactive) | 1.81 µM (inactive) | 0.962 µM (active) | 2.23 µM (inactive) | 2 µM (inactive) | 2.9 µM (inactive) | 1.63 µM (inactive) | 3.07 µM (inactive) | 3.24 µM (inactive) | 10.6 µM (inactive) | 1.85 µM (inactive) | 3.01 µM (inactive) | 1.8 µM (inactive) | 1.89 µM (inactive) | 1.67 µM (inactive) | 10.1 µM (inactive) | 2.78 µM (inactive)
11 | CO/C(N)=C(C#N)/N=C/c1ccsc1 | 52.2 µM (inactive) | > 100 µM (inactive) | 52.6 µM (inactive) | 26.2 µM (inactive) | 30.4 µM (inactive) | 40 µM (inactive) | > 100 µM (inactive) | 40.6 µM (inactive) | 28.5 µM (inactive) | 36.6 µM (inactive) | 41.9 µM (inactive) | 23.9 µM (inactive) | 37.2 µM (inactive) | > 100 µM (inactive) | > 100 µM (inactive) | 81.1 µM (inactive) | 23.9 µM (inactive) | 34.1 µM (inactive) | 36.2 µM (inactive) | 32.7 µM (inactive)
12 | CC(C)n1c(=O)[nH]n(-c2ccccc2)c1=O | > 100 µM (inactive) | > 100 µM (inactive) | > 100 µM (inactive) | > 100 µM (inactive) | > 100 µM (inactive) | > 100 µM (inactive) | > 100 µM (inactive) | > 100 µM (inactive) | > 100 µM (inactive) | > 100 µM (inactive) | > 100 µM (inactive) | > 100 µM (inactive) | > 100 µM (inactive) | > 100 µM (inactive) | > 100 µM (inactive) | > 100 µM (inactive) | > 100 µM (inactive) | > 100 µM (inactive) | > 100 µM (inactive) | > 100 µM (inactive)
13 | CC(Oc1ccc(Cl)cc1Cl)C(=O)NN1C(=O)CSC1c1ccccc1 (stereo not given) | 45.6 µM (inactive) | 68.5 µM (inactive) | 54 µM (inactive) | > 100 µM (inactive) | 63.4 µM (inactive) | 76.4 µM (inactive) | 24.2 µM (inactive) | 40.9 µM (inactive) | > 100 µM (inactive) | > 100 µM (inactive) | 53.2 µM (inactive) | 43.5 µM (inactive) | 20.4 µM (inactive) | 60 µM (inactive) | 69.2 µM (inactive) | 32.4 µM (inactive) | 56.2 µM (inactive) | 27.7 µM (inactive) | > 100 µM (inactive) | 37.8 µM (inactive)
14 | Clc1cc2ncn(C3CCCO3)c2cc1Cl (stereo not given) | 48.8 µM (inactive) | 98.9 µM (inactive) | 17.3 µM (inactive) | > 100 µM (inactive) | 96.2 µM (inactive) | 69.7 µM (inactive) | 54.1 µM (inactive) | > 100 µM (inactive) | > 100 µM (inactive) | > 100 µM (inactive) | > 100 µM (inactive) | > 100 µM (inactive) | 58.1 µM (inactive) | > 100 µM (inactive) | > 100 µM (inactive) | 48.2 µM (inactive) | 24.5 µM (inactive) | 98.9 µM (inactive) | > 100 µM (inactive) | > 100 µM (inactive)

— ChEMBL document CHEMBL1201862, “PubChem BioAssay data set” (2004)
